Measured values from patent US12116356B2, “N-heterocyclic five-membered ring-containing capsid protein assembly inhibitor, pharmaceutical composition thereof, and use thereof” (CHIA TAI TIANQING PHARMACEUTICAL GROUP CO., LTD., priority 2018, dated 2024).

Key:
HBV DNA in HepAD38 cells = assay: In vitro cell HBV DNA inhibitory activity (anti-HBV activity) in HepAD38 cells; format: cell-based; conditions: Hepatitis B virus, 144 h; anti-HBV activity in HepAD38 cells, 6 days treatment, intracellular capsid HBV DNA by qPCR; read-out: EC50
Outline: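 HepG2.2.15 or HepAD38 cells on collagen-coated plates were grown 48 h, then treated 6 days with 10-point two-fold compound dilutions, with medium and compound refreshed every 72 h. Intracellular capsid HBV DNA quantified by real-time qPCR. EC50 from Ct-based inhibition by four-parameter fit.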

[1] = In vitro cytotoxicity (CCK-8) in HepAD38 cells; format: cell-based; conditions: human
Experimental: (§1) A bottle of HepG2.2.15 or HepAD38 cells in good exponential growth state was taken, washed once by adding 5 mL PBS, and then thereto was added 3 mL trypsin. The sample was digested in a cell culture incubator, and taken out from time to time and observed under a microscope. When the cells just fell off, 1 mL trypsin was discarded. The residual liquid was placed in a cell culture incubator at 37° C. and digested for 8-15 min. The cells were taken out and observed under a microscope (whether the cells were individually round and there was no adhesion between the cells). 5 mL MEM medium was added for cell resuspension. The cells were then subjected to cell counting with a cell counter, diluted with a complete medium, and adjusted to a cell density of 2*10^5 cells/mL. Then the cells were seeded at 100 μL/well in a 96-well plate with a multi-channel pipette (the 96-well plate was coated with 50 μg/mL Collagen I solution in advance), and cultured in a constant temperature CO2 incubator for 24 h. The cells were treated by drug administration, and fresh medium containing the compound was used to replace the spent medium every 3 days. To control wells was added a drug-free medium containing 0.5% DMSO, and a control well containing a common medium was set up. 6 days after the administration, CCK-8 was added at 10 μL/well. After 1 to 2 hours, the absorbance was detected with microplate reader at 450 nm, and the inhibition rate and the CC50 were calculated.

[2] = In vitro cytotoxicity (CCK-8) in HepG2.2.15 cells; format: cell-based; conditions: human
Experimental: as §1

[3] = Plasma protein binding assay (equilibrium dialysis), human plasma; format: in vitro ADME
Experimental: (§2) Formulation of plasma sample: 495 μL of blank plasmas of the corresponding species (mouse, rat, dog, monkey, and human) were drawn respectively, and thereto was added 5 μL of the corresponding test compound solution or positive control to give plasma sample solutions having a plasma drug concentration of the compound of 1 μM, and 10 μM, respectively (formulated with acetonitrile).
(§3) The pre-treated dialysis membrane was placed in a high-throughput equilibrium dialysis device, and 100 μL of the plasma sample solution and PBS buffer solution were drawn and added respectively to both sides of the dialysis membrane (sample side and buffer side) (n=3). After the equilibration device was sealed with a film, it was incubated at 37° C. overnight (100 rpm). After dialysis equilibrium was reached, 50 μL samples were drawn from the sample side and the buffer side, respectively, and the reaction was terminated by adding ice acetonitrile containing an internal standard.
(§4) Sample pre-treatment: To 50 μL of the plasma-side sample was added 450 μL of ice acetonitrile containing an internal standard, and then precipitated. After vortexing for 5 minutes, the sample was centrifugated (12000 rpm, 4° C.) for 10 minutes. 75 μL of the supernatant was pipetted, and 75 μL of ultrapure water was added thereto for dilution and mixed uniformly. 1 μL of the resulting solution was injected for analysis. To 50 μL of the PBS-side sample was added 250 μL of ice acetonitrile with an internal standard, and precipitated. After vortexing for 5 min, the sample was centrifugated (12000 rpm, 4° C.) for 10 min. 75 μL of the supernatant was pipetted, and 75 μL of ultrapure water was added thereto for dilution and mixed uniformly. 2 μL of the resulting solution was injected for analysis.

[4] = Plasma protein binding assay (equilibrium dialysis), rat plasma; format: in vitro ADME
Experimental: as §2, §3, §4

[5] = Plasma protein binding assay (equilibrium dialysis), mouse plasma; format: in vitro ADME
Experimental: as §2, §3, §4

[6] = Plasma protein binding assay (equilibrium dialysis), monkey plasma; format: in vitro ADME
Experimental: as §2, §3, §4

[7] = test system: HBV (recombinant plasmid pHBV 1.3); assay: Antiviral effect evaluation in HDI mouse model; format: in vivo, C57BL/6 mice; conditions: 30 mg/kg intragastric once daily for 6 days
Experimental: 6-8 week old male C57BL/6 mice was used, and each mouse was injected with purified recombinant plasmid pHBV 1.3 (10 μg) dissolved in PBS equivalent to a volume of about 10% of its body weight through the tail vein within 3-8 s. Blood was collected from the orbits of the mice at 24 hours after the plasmid injection to detect serum HBV DNA. The model mice having uniform serum DNA were selected and divided into: a blank control group, a vehicle control group, and a test substance group. Mice in each group were continuously administered intragastrically once daily for 6 days at a dose of 30 mg/kg. The mouse serum was taken on day 1, 3, 5, and 7 after the injection, and the mice were sacrificed on day 7 to take liver tissue samples. The HBV DNA copy numbers in serum and liver of the mice were detected by fluorescent quantitative PCR method.

With `Cc1c(C(=O)Nc2ccc(F)c(C#N)c2)c(C)n(C)c1C(=O)C(=O)N[C@@H](C)C(F)(F)F` [Example 12] the EC50 (HBV DNA in HepAD38 cells) was under 0.01 µM, the CC50 at 6 days [1] was over 100 µM and the CC50 at 6 days [2] was over 100 µM. The Binding rate ([3]; 1 μM) was 94.0%, the Binding rate ([3]; 10 μM) was 93.7% and the Binding rate ([4]; 1 μM) was 82.0%. For the same compound, the Binding rate ([4]; 10 μM) was 79.2%, the Binding rate ([5]; 1 μM) was 75.3% and the Binding rate ([5]; 10 μM) was 74.5%. For the same compound, the Binding rate ([6]; 1 μM) was 90.7%, the Binding rate ([6]; 10 μM) was 90.6% and the “Reduction levels (log10) of HBV DNA in semm on day 5” value [7] was 2.17 log10.
In the case of `Cc1c(C(=O)Nc2ccc(F)c(C#N)c2)c(C)n(C)c1C(=O)C(=O)NC1(C(F)(F)F)COC1` [Example 25, N-(3-cyano-4-fluorophenyl)-1,2,4-trimethyl-5-(2-oxo-2-((3-(trifluoromethyl)oxetan-3-yl)amino)acetyl)-1H-pyrrole-3-carboxamide], the EC50 (HBV DNA in HepAD38 cells) is reported as under 0.01 µM, the CC50 at 6 days [1] is reported as over 100 µM and the CC50 at 6 days [2] is reported as over 100 µM. The Binding rate ([3]; 1 μM) was 92.9%, the Binding rate ([3]; 10 μM) was 92.2% and the Binding rate ([4]; 1 μM) was 79.5%. The Binding rate ([4]; 10 μM) was 77.0%, the Binding rate ([5]; 1 μM) was 76.5% and the Binding rate ([5]; 10 μM) was 74.7%. The Binding rate ([6]; 1 μM) was 87.4%, the Binding rate ([6]; 10 μM) was 85.6% and the “Reduction levels (log10) of HBV DNA in semm on day 5” value [7] was 1.73 log10.
